The values below come from US20240072809A1, “ASGPR-BINDING COMPOUNDS FOR THE DEGRADATION OF EXTRACELLULAR PROTEINS” (Avilar Therapeutics, Inc., priority 2020, published 2024).

pKd: −log10 of the molar value. Read-outs that look alike come from different tables or passages of the source.

In the assay the target is ASGPR (Homo sapiens (Human), UniProt P07306). The experiment in a line: Affinity to ASGPR measured by surface plasmon resonance (SPR). Format: binding. As to conditions: ASGPR ligands.
Chain of ASGPR (P07306 whole entry): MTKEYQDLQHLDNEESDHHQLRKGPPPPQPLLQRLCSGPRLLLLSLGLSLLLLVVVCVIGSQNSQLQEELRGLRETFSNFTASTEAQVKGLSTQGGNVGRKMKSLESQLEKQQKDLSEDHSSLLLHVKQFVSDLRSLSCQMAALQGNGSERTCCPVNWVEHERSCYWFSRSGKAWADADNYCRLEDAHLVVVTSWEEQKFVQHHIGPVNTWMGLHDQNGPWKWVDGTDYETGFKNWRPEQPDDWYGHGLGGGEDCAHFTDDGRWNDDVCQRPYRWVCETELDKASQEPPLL
[1] abbreviates: Table 2, Biacore 8K, 25° C., steady state fit, read-out: SPR Binding External Calculation: KD.
Where [2] appears, read: Table 4, class symbols, read-out: ASGPR_PR Binding KD.
Setting [3] is: Table 4, numeric lower bounds, read-out: ASGPR_PR Binding KD.

Turning to `OC[C@@H]1CO[C@H](CO)[C@H](O)[C@@H]1O` [Compound A181, (2R,3R,4R,5R)-2,5-bis(hydroxymethyl)tetrahydro-2H-pyran-3,4-diol], the pKd under setting [1] was 3.30 to 4.00.

Take `COc1cc(C#N)cc(N[C@H]2CO[C@H](CO)[C@H](O)[C@@H]2O)n1` [Compound A364, 2-(((3S,4R,5R,6R)-4,5-dihydroxy-6-(hydroxymethyl)tetrahydro-2H-pyran-3-yl)amino)-6-methoxyisonicotinonitrile]: the negative logarithm of the Kd (pKd) under setting [2] was above 4.00.

Consider `CO[C@@H]1O[C@H](CO)[C@H](O)[C@H](O)[C@@H]1N1CCOCC1` [Compound A218, (2R,3R,4R,5S,6R)-2-(hydroxymethyl)-6-methoxy-5-morpholinotetrahydro-2H-pyran-3,4-diol], for which, under setting [2], the pKd was below 3.00.

Turning to `CN1CCN([C@@H]2CO[C@H](CO)[C@H](O)[C@@H]2O)C1=O` [Compound A392, 1-((3R,4R,5R,6R)-4,5-dihydroxy-6-(hydroxymethyl)tetrahydro-2H-pyran-3-yl)-3-methylimidazolidin-2-one], the pKd under setting [2] was 3.30 to 4.00.

On to `OC[C@H]1OC[C@H](Nc2cc(Cl)cc(Cl)n2)[C@@H](O)[C@H]1O` [Compound A296], for which the negative-log Kd (pKd) under setting [2] is above 4.00.

For `COc1cc(Cl)nc(N[C@H]2[C@H]3OC[C@](CO)(O3)[C@H](O)[C@@H]2O)n1` [Compound A292, (1S,2R,3R,4R,5S)-4-((4-chloro-6-methoxypyrimidin-2-yl)amino)-1-(hydroxymethyl)-6,8-dioxabicyclo[3.2.1]octane-2,3-diol], under setting [2], the negative-log Kd (pKd) is above 4.00.

In the case of `CSc1nc(Cl)cc(N[C@H]2CO[C@H](CO)[C@H](O)[C@@H]2O)n1` [Compound A331, (2R,3R,4R,5S)-5-((6-chloro-2-(methylthio)pyrimidin-4-yl)amino)-2-(hydroxymethyl)tetrahydro-2H-pyran-3,4-diol], the negative-log Kd (pKd) under setting [2] was above 4.00.

Consider `O=c1nc(N[C@H]2CO[C@H](CO)[C@H](O)[C@@H]2O)[nH]c(=O)[nH]1` [Compound A283], for which the pKd under setting [1] was 3.30 to 4.00.

Regarding `CO[C@@H]1O[C@H](CO)[C@H](O)[C@H](O)[C@H]1Nc1nc(=O)[nH]c(=O)[nH]1` [Compound A112, 6-(((2R,3R,4R,5R,6R)-4,5-dihydroxy-6-(hydroxymethyl)-2-methoxytetrahydro-2H-pyran-3-yl)amino)-1,3,5-triazine-2,4(1H,3H)-dione], the pKd under setting [1] is above 4.00.

Consider `OC[C@H]1OC[C@@H](CNc2nc(Cl)ns2)[C@@H](O)[C@H]1O` [Compound A188, (2R,3R,4R,5R)-5-(((3-chloro-1,2,4-thiadiazol-5-yl)amino)methyl)-2-(hydroxymethyl)tetrahydro-2H-pyran-3,4-diol], for which, under setting [2], the pKd is 3.30 to 4.00.

Regarding `OC[C@H]1OC[C@H](Nc2cc(Cl)ncn2)[C@@H](O)[C@H]1O` [Compound A321], the pKd under setting [2] was above 4.00.

As for `O=S(=O)(N[C@H]1CO[C@H](CO)[C@H](O)[C@@H]1O)C(F)(F)F` [Compound A344], the pKd under setting [2] was above 4.00.

Turning to `CO[C@@H]1O[C@H](CO)[C@H](O)[C@H](O)[C@@H]1OC` [Compound A217, (2R,3R,4S,5S,6R)-2-(hydroxymethyl)-5,6-dimethoxytetrahydro-2H-pyran-3,4-diol], the pKd under setting [1] was below 3.00.

Regarding `O=C(N[C@H]1CO[C@H](CO)[C@H](O)[C@@H]1O)c1ccccc1` [Compound A342, N-((3S,4R,5R,6R)-4,5-dihydroxy-6-(hydroxymethyl)tetrahydro-2H-pyran-3-yl)benzamide], the pKd under setting [2] is above 4.00.

On to `OC[C@@]12CO[C@@H](O1)[C@H](Nc1nc(Br)ns1)[C@@H](O)[C@H]2O` [Compound A288], for which the pKd under setting [2] is above 4.00.

Consider `CC1C(Oc2ccccc2)O[C@H](CO)[C@H](O)[C@@H]1O` (stereo in doubt) [Compound A192, (2R,3R,4R,5R,6S)-2-(hydroxymethyl)-5-methyl-6-phenoxytetrahydro-2H-pyran-3,4-diol], for which the pKd under setting [1] was below 3.00.

`C=CCO[C@H]1O[C@H](CO)[C@H](O)[C@H](O)[C@H]1NC(=O)C(F)(F)F` [Compound A404, N-((2S,3R,4R,5R,6R)-2-(allyloxy)-4,5-dihydroxy-6-(hydroxymethyl)tetrahydro-2H-pyran-3-yl)-2,2,2-trifluoroacetamide]: the negative-log Kd (pKd) under setting [2] was above 4.00.

Regarding `OC[C@H]1OC[C@H](Nc2ccnc(Cl)n2)[C@@H](O)[C@H]1O` [Compound A317], the pKd under setting [2] is above 4.00.

Regarding `OC[C@H]1OC[C@H](Nc2nc(-c3cccnc3)ns2)[C@@H](O)[C@H]1O` [Compound A358, (2R,3R,4R,5S)-2-(hydroxymethyl)-5-((3-(pyridin-3-yl)-1,2,4-thiadiazol-5-yl)amino)tetrahydro-2H-pyran-3,4-diol], the pKd under setting [2] was above 4.00.

Consider `NC(=O)NC[C@@H]1CO[C@H](CO)[C@H](O)[C@@H]1O` [Compound A403, 1-(((3R,4R,5R,6R)-4,5-dihydroxy-6-(hydroxymethyl)tetrahydro-2H-pyran-3-yl)methyl)urea], for which the pKd under setting [3] was below 4.70.

In the case of `OC[C@H]1OC[C@@H](CCc2ccccc2)[C@@H](O)[C@H]1O` [Compound A160, (2R,3R,4R,5R)-2-(hydroxymethyl)-5-phenethyltetrahydro-2H-pyran-3,4-diol], the negative logarithm of the Kd (pKd) under setting [1] was below 3.00.

Consider `Cn1cc([C@@H]2CO[C@H](CO)[C@H](O)[C@@H]2O)cn1` [Compound A394, (2R,3R,4R,5R)-2-(hydroxymethyl)-5-(1-methyl-1H-pyrazol-4-yl)tetrahydro-2H-pyran-3,4-diol], for which, under setting [3], the negative-log Kd (pKd) is below 3.70.

Turning to `OC[C@@]12CO[C@@H](O1)[C@H](Nc1nc(Cl)nn3cccc13)[C@@H](O)[C@H]2O` [Compound A291], the pKd under setting [2] was above 4.00.

As for `CSc1cc(N[C@H]2CO[C@H](CO)[C@H](O)[C@@H]2O)nc(C#N)n1` [Compound A351, 4-(((3S,4R,5R,6R)-4,5-dihydroxy-6-(hydroxymethyl)tetrahydro-2H-pyran-3-yl)amino)-6-(methylthio)pyrimidine-2-carbonitrile], the pKd under setting [3] was below 4.70.

Regarding `OC[C@H]1OC[C@@H](CN2CCOCC2)[C@@H](O)[C@H]1O` [Compound A209, (2R,3R,4R,5R)-2-(hydroxymethyl)-5-(morpholinomethyl)tetrahydro-2H-pyran-3,4-diol], the negative-log Kd (pKd) under setting [1] was below 3.00.

`O=C(NC[C@@H]1CO[C@H](CO)[C@H](O)[C@@H]1O)C(F)(F)F` [Compound A186, N-(((3R,4R,5R,6R)-4,5-dihydroxy-6-(hydroxymethyl)tetrahydro-2H-pyran-3-yl)methyl)-2,2,2-trifluoroacetamide]: the pKd under setting [2] was below 3.00.

For the compound `OC[C@@]12CO[C@@H](O1)[C@H](Nc1cncc(C(F)(F)F)n1)[C@@H](O)[C@H]2O` [Compound A427], under setting [2], the negative logarithm of the Kd (pKd) was above 4.00.

With `COc1cc(N2CCN(C)CC2)nc(N[C@H]2CO[C@H](CO)[C@H](O)[C@@H]2O)n1` [Compound A350, (2R,3R,4R,5S)-2-(hydroxymethyl)-5-((4-methoxy-6-(4-methylpiperazin-1-yl)pyrimidin-2-yl)amino)tetrahydro-2H-pyran-3,4-diol], the pKd under setting [3] was below 4.70.

In the case of `CO[C@@H]1O[C@H](CO)[C@H](O)[C@H](O)[C@H]1Nc1nccc(C(F)(F)F)n1` [Compound A384], the pKd under setting [2] was above 4.00.
